Measured values published in patent publication US12091431B2, “Crystals” (AEROMICS, INC., priority 2016, dated 2024).
Converted amounts (≈) assume the structure as drawn. Where two headings read alike, the source gives them in different places.

What was measured:
Type in all cases: physicochemical
[1] = Dynamic vapor sorption (DVS); settings: for weight change upon desorption: DVS desorption after sorption to 95% RH; for XRPD of the post-DVS material (form change): after DVS sorption/desorption cycle; for hygroscopicity, weight gain from 5-95% RH: summary statement
Protocol: Dynamic vapor sorption (DVS) data are collected on a VTI SGA-100 Vapor Sorption Analyzer. NaCl and PVP are used as calibration standards. Samples are not dried prior to analysis. Sorption and desorption data are collected over a range from 5% to 95% relative humidity (RH) at 10% RH increments under a nitrogen purge. The equilibrium criterion used for analysis is less than 0.0100% weight change in 5 minutes with a maximum equilibration time of 3 hours. Data are not corrected for the initial moisture content of the samples.

[2] = Stressing at elevated relative humidity; settings: ~97% RH for 7 days
Protocol: The kinetic and thermodynamic hygroscopicity of Form A is assessed by DVS and stressing at elevated RH, respectively.

[3] = Slurry in water at room temperature, form by XRPD
Protocol: The slurry is repeated for 19 hours to gauge how quickly the conversion occurs and results again in Form N, indicating form conversion within 19 hours (starting material is the product from this example and from Example 21).

[4] = Vacuum drying attempts of Form A
Protocol: Several attempts to dry Form A are tried. Rigorous conditions are initially selected due to the high temperature range at which the TGA weight loss is observed (above 90° C.). Drying under vacuum at 80° C. for 1 day results in brown solids stuck to the vial.
A drying attempt under milder conditions is attempted. The experiment begins by drying under vacuum at ambient temperature. […] Minor weight loss is noted after 6 hours at 63-65° C., so the sample is held in the vacuum oven at this temperature for 1 day, resulting in 11% gravimetric weight loss.

Solubility in water = experiment: Solubility in water
[5] = Hydrolysis in the solid state; settings: reversion to N-[3,5-bis(trifluoromethyl)phenyl]-5-chloro-2-hydroxybenzamide

O=C(Nc1cc(C(F)(F)F)cc(C(F)(F)F)c1)c1cc(Cl)ccc1OP(=O)(O)O [Form B, 2-{[3,5-bis(trifluoromethyl)phenyl]carbamoyl}-4-chlorophenyl dihydrogen phosphate]
weight change upon desorption [1]: All of this weight is lost | weight gain upon sorption from 5% to 95% relative humidity ([1]; DVS sorption, 5% to 95% RH): 0.6 weight % | weight loss at 5% relative humidity ([1]; DVS, 5% RH): 0.04 weight % | XRPD of the post-DVS material (form change) [1]: no form change | hygroscopicity, weight gain from 5-95% RH ([1]; DVS): ~0.6% | form after stressing at elevated relative humidity [2]: partial conversion to Form N | time for form conversion to Form N in water slurry [3]: ≤ 19 h | form after slurrying with water ([3]; 7 days, vacuum filtered): converts to Form N

O=C(Nc1cc(C(F)(F)F)cc(C(F)(F)F)c1)c1cc(Cl)ccc1OP(=O)(O)O [Form A, 2-{[3,5-bis(trifluoromethyl)phenyl]carbamoyl}-4-chlorophenyl dihydrogen phosphate ethyl acetate solvate]
weight loss upon desorption between 95% and 5% RH ([1]; DVS desorption, 95% to 5% RH): 8.73% | moisture uptake between 5% and 95% RH ([1]; DVS sorption, 5% to 95% RH): 6.07 wt % | weight gain 5%-75% RH ([1]; DVS sorption, 5%-75% RH): 1.65% | weight gain 75%-95% RH ([1]; DVS sorption, 75%-95% RH): 4.42% | weight loss upon equilibration at 5% RH ([1]; DVS, initial equilibration at 5% RH): 0.76 wt % | XRPD of the post-DVS material (form change) [1]: change to a disordered unknown material | hygroscopicity, weight gain from 5-95% RH ([1]; DVS): ~6% | form after stressing at elevated relative humidity [2]: form change to a mixture of materials with a minor Form N (hydrate) component | gravimetric weight loss on drying ([4]; under vacuum at 80° C. for 1 day): 30% | gravimetric weight loss on drying ([4]; vacuum oven at 63-65° C. for 1 day): 11% | outcome of vacuum drying at elevated temperature ([4]; vacuum, elevated temperature): decomposition and collapse of the crystalline structure

O=C(Nc1cc(C(F)(F)F)cc(C(F)(F)F)c1)c1cc(Cl)ccc1O [N-[3,5-bis(trifluoromethyl)phenyl]-5-chloro-2-hydroxybenzamide]
solubility (Solubility in water; water, read-out: solubility in water): 0.003 mg/mL (≈ 7.82 µM)

O=C(Nc1cc(C(F)(F)F)cc(C(F)(F)F)c1)c1cc(Cl)ccc1OP(=O)(O)O [Form N, 2-{[3,5-bis(trifluoromethyl)phenyl]carbamoyl}-4-chlorophenyl dihydrogen phosphate hydrate]
weight change upon desorption [1]: All of this weight is lost | weight gain upon sorption from 5% to 95% relative humidity ([1]; DVS sorption, 5% to 95% RH, phosphate hydrate): 3 weight % | weight loss upon equilibration to 5% relative humidity ([1]; DVS, initial equilibration to 5% RH, residual water likely): 30% | XRPD of the post-DVS material (form change) ([1]; phosphate hydrate): no form change | hygroscopicity, weight gain from 5-95% RH ([1]; DVS, phosphate hydrate): ~3%

O=C(Nc1cc(C(F)(F)F)cc(C(F)(F)F)c1)c1cc(Cl)ccc1OP(=O)([O-])[O-].[Na+].[Na+] [bis sodium salt, 2-((3,5-bis(trifluoromethyl)phenyl)carbamoyl)-4-chlorophenyl phosphate bis sodium salt]
solubility (Solubility in water; pH 8.5 water, pH 8.5, aqueous buffer, read-out: solubility in pH 8.5 water): 20 mg/mL | hydrolysis in the solid state [5]: 1 % per day

NCCO.NCCO.O=C(Nc1cc(C(F)(F)F)cc(C(F)(F)F)c1)c1cc(Cl)ccc1OP(=O)(O)O [bis ethanolamine salt, 2-((3,5-bis(trifluoromethyl)phenyl)carbamoyl)-4-chlorophenyl phosphate bis ethanolamine salt]
hydrolysis in the solid state [5]: 1 % per day

O=C(Nc1cc(C(F)(F)F)cc(C(F)(F)F)c1)c1cc(Cl)ccc1OP(=O)([O-])O.[Na+] [mono sodium salt, 2-((3,5-bis(trifluoromethyl)phenyl)carbamoyl)-4-chlorophenyl hydrogen phosphate mono sodium salt]
hydrolysis in the solid state [5]: 1 % per day
